Measured values from ChEMBL document CHEMBL4392866, “Cytotoxic Trichothecene Macrolides Produced by the Endophytic Myrothecium roridum” (J Nat Prod, 2019).

What was measured:
SW 1116 = assay: Cytotoxicity against human SW1116 cells by disk diffusion soft agar colony formation assay; type: functional, cell-based
K562 = assay: Cytotoxicity against human K562 cells by disk diffusion soft agar colony formation assay; type: functional, cell-based

Work on `CC1=C[C@H]2O[C@@H]3C[C@@H](OC(=O)/C=C\C=C\C(OCCC4=CC(=O)OC4)[C@@H](C)O)[C@](C)([C@@]2(COC(=O)/C=C(\C)CCO)CC1)[C@]31CO1` (stereo partly specified) yielded an IC50 (SW 1116; sw 1116) of 3.1 nM and an IC50 (K562; k562) of 1.2 nM.
`CC(=O)[C@@]12CC/C=C\C(=O)O[C@@H]3C[C@H]4O[C@@H]5C=C(C)CC[C@]5(COC(=O)/C=C(\CCO1)[C@H]2O)[C@]3(C)[C@]41CO1` gave an IC50 (SW 1116; sw 1116) of 1.5 nM and an IC50 (K562; k562) of 1.3 nM.
`CC(=O)[C@@]12CC/C=C\C(=O)O[C@@H]3C[C@H]4O[C@@H]5[C@@H]6C[C@@]4(O)[C@@]3(C)[C@]5(CC[C@]6(C)O)COC(=O)/C=C(\CCO1)[C@H]2O` gave an IC50 (SW 1116; Homo sapiens, SW 1116) of 22700 nM and an IC50 (K562; Homo sapiens, K562) of 31600 nM.
`CC1=C[C@H]2O[C@@H]3C[C@H]4OC(=O)/C=C\CC[C@]5(C(=O)CO)OCC/C(=C\C(=O)OC[C@@]2(CC1)[C@]4(C)[C@]31CO1)[C@H]5O` was tested, and the IC50 (SW 1116; sw 1116) was 550 nM and the IC50 (K562; k562) was 920 nM.
Compound `CC1=C[C@H]2O[C@@H]3C[C@H]4OC(=O)/C=C\CC[C@@]56OCC/C(=C\C(=O)OC[C@@]2(CC1)[C@]4(C)[C@]31CO1)[C@H]5O[C@@H](O)[C@@H]6O` has an IC50 (SW 1116; sw 1116) of 1.5 nM and an IC50 (K562; k562) of 1.1 nM.
`CC1=C[C@H]2O[C@@H]3C[C@H]4OC(=O)/C=C\C=C\[C@@H]([C@@H](C)O)OCC/C(C)=C/C(=O)OC[C@@]2(CC1)[C@]4(C)[C@]31CO1` was tested, and the IC50 (SW 1116; sw 1116) was 33 nM and the IC50 (K562; k562) was 1 nM.
With `CC(=O)[C@@]12CC/C=C\C(=O)O[C@@H]3C[C@H]4O[C@@H]5[C@@H]6C[C@@]4(O)[C@@]3(C)[C@]5(CC[C@]6(C)O)COC(=O)/C=C(\CCO1)[C@@H]2O` the IC50 (SW 1116; Homo sapiens, SW 1116) was 10600 nM and the IC50 (K562; Homo sapiens, K562) was 970 nM.
For `CC(=O)O[C@@H]1/C2=C/C(=O)OC[C@@]34CC[C@](C)(O)[C@H]5C[C@]6(O)[C@@H](C[C@@H](OC(=O)/C=C\CC[C@]1(C(C)=O)OCC2)[C@]36C)O[C@H]54`, the IC50 (SW 1116; Homo sapiens, SW 1116) was 4250 nM and the IC50 (K562; Homo sapiens, K562) was 1530 nM.
`C[C@]12[C@H]3C[C@H]4O[C@@H]5[C@H](C[C@]41O)[C@@](C)(O)CC[C@@]52COC(=O)/C=C1\CCO[C@]2(CC/C=C\C(=O)O3)[C@@H]1OC(=O)[C@@H]2O` gave an IC50 (SW 1116; Homo sapiens, SW 1116) of 21100 nM and an IC50 (K562; Homo sapiens, K562) of 16000 nM.
Compound `C/C1=C\C(=O)OC[C@]23CCC(CO)=C[C@H]2O[C@@H]2C[C@@H](OC(=O)/C=C\C=C\[C@H]([C@@H](C)O)OCC1)[C@@]3(C)[C@]21CO1` has an IC50 (SW 1116; sw 1116) of 9060 nM and an IC50 (K562; k562) of 7130 nM.
Compound `C[C@]12[C@H]3C[C@H]4O[C@@H]5[C@H](C[C@]41O)[C@@](C)(O)CC[C@@]52COC(=O)/C=C1\CCO[C@@]2(CC/C=C\C(=O)O3)[C@H](O)C(=O)O[C@H]12` has an IC50 (SW 1116; Homo sapiens, SW 1116) of 11600 nM and an IC50 (K562; Homo sapiens, K562) of 16000 nM.
Compound `CC(=O)[C@@]12CC/C=C\C(=O)O[C@@H]3C[C@H]4O[C@@H]5C=C(CO)CC[C@]5(COC(=O)/C=C(\CCO1)[C@H]2O)[C@]3(C)[C@]41CO1` has an IC50 (SW 1116; sw 1116) of 180 nM and an IC50 (K562; k562) of 2870 nM.
`CC1=C[C@H]2O[C@@H]3C[C@H]4OC(=O)/C=C\CC[C@@]56OCC/C(=C\C(=O)OC[C@@]2(CC1)[C@]4(C)[C@]31CO1)[C@H]5OC(=O)[C@@H]6O` was tested, and the IC50 (SW 1116; sw 1116) was 200 nM and the IC50 (K562; k562) was 56 nM.
`C[C@]12[C@H]3C[C@H]4O[C@@H]5[C@H](C[C@]41O)[C@@](C)(O)CC[C@@]52COC(=O)/C=C1\CCO[C@@](C(=O)CO)(CC/C=C\C(=O)O3)[C@@H]1O` gave an IC50 (SW 1116; Homo sapiens, SW 1116) of 23100 nM and an IC50 (K562; Homo sapiens, K562) of 26700 nM.
Compound `CC1=C[C@H]2O[C@@H]3C[C@H]4OC(=O)/C=C\CC[C@@]5([C@H](C)O)OCC/C(=C\C(=O)OC[C@@]2(CC1)[C@]4(C)[C@]31CO1)[C@@H]5O` has an IC50 (SW 1116; sw 1116) of 2270 nM and an IC50 (K562; k562) of 510 nM.
For `C/C1=C\C(=O)OC[C@]23CCC(CO)=C[C@H]2O[C@@H]2C[C@@H](OC(=O)/C=C\C=C\C(=O)OCC1)[C@@]3(C)[C@]21CO1`, the IC50 (SW 1116; sw 1116) was 160 nM and the IC50 (K562; k562) was 6.4 nM.
In the case of `C[C@]12[C@H]3C[C@H]4O[C@@H]5[C@H](C[C@]41O)[C@@](C)(O)CC[C@@]52COC(=O)/C=C1\CCO[C@]2(CC/C=C\C(=O)O3)[C@@H]1O[C@H](O)[C@H]2O`, the IC50 (SW 1116; Homo sapiens, SW 1116) is reported as 570 nM and the IC50 (K562; Homo sapiens, K562) is reported as 8200 nM.
In the case of `CC1=C[C@H]2O[C@@H]3C[C@H]4OC(=O)/C=C\C=C\[C@H]([C@@H](C)O)OCC/C(CO)=C/C(=O)OC[C@@]2(CC1)[C@]4(C)[C@]31CO1`, the IC50 (SW 1116; sw 1116) is reported as 7920 nM and the IC50 (K562; k562) is reported as 3150 nM.
For `C[C@@H]1CCOC(=O)/C=C/C=C\C(=O)O[C@@H]2C[C@H]3O[C@@H]4C=C(CO)CC[C@]4(COC(=O)[C@H]1O)[C@]2(C)[C@]31CO1` [16-HYDROXY VERRUCARIN A], the IC50 (SW 1116; sw 1116) was 12 nM and the IC50 (K562; k562) was 1.7 nM.
`O=c1[nH]cc(F)c(=O)[nH]1` [FLUOROURACIL] showed an IC50 (SW 1116; Homo sapiens, SW 1116) of 76900 nM and an IC50 (K562; Homo sapiens, K562) of 32900 nM.
`CC1=C[C@H]2O[C@@H]3C[C@H]4OC(=O)/C=C\C=C\[C@H]([C@@H](C)O)OCC[C@@H](C)[C@H](O)C(=O)OC[C@@]2(CC1)[C@]4(C)[C@]31CO1` [RORIDIN A] showed an IC50 (SW 1116; sw 1116) of 210 nM and an IC50 (K562; k562) of 7.1 nM.
For `CC1=C[C@H]2O[C@@H]3C[C@H]4OC(=O)/C=C\C=C\[C@H]([C@@H](C)O)OCC/C(C)=C/C(=O)OC[C@@]2(CC1)[C@]4(C)[C@]31CO1` [RORIDIN E], the IC50 (SW 1116; sw 1116) was 39 nM and the IC50 (K562; k562) was 540 nM.
For `CC1=C[C@H]2O[C@@H]3C[C@H]4OC(=O)/C=C\C=C\C(=O)OCC[C@@H](C)[C@H](O)C(=O)OC[C@@]2(CC1)[C@]4(C)[C@]31CO1` [VERRUCARIN A], the IC50 (SW 1116; sw 1116) was 1.8 nM and the IC50 (K562; k562) was 3 nM.
